This assay concerns the target T1, monocarboxylate transporter 1 (MCT1) (Mus musculus, UniProt P53986).
T1 sequence (P53986 1-493): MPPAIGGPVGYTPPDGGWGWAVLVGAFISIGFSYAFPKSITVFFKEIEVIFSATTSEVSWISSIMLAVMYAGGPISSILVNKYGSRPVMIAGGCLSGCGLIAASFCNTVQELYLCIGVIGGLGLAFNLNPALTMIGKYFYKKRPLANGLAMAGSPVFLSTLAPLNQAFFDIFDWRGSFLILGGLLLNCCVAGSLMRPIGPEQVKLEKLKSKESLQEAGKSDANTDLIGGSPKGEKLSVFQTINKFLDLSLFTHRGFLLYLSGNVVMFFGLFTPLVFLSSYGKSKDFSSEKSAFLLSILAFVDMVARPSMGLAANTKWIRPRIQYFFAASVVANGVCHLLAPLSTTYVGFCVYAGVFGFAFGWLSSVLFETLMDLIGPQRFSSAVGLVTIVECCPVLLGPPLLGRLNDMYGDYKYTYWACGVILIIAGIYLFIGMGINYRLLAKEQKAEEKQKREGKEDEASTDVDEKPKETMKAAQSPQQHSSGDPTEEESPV
Put plainly: inhibition of [3H]-L-lactate uptake in 4T1 cells at […], pH […], with washout. The settings on record: 4T1, read-out: % inhibition at 200 nM. In kind it is cell-based.

The results in this text go back to publication PMC6466617 (The AAPS journal, 2019).

For `Cc1[nH]nc(C(F)(F)F)c1Cc1sc2c(c1C(=O)N1C[C@](C)(O)CO1)c(=O)n(C)c(=O)n2C(C)C` [AZD3965], the inhibition (usually the percentage by which the read-out fell short of the control) at 0.2 µM worked out at 83.5%.
